PubChem BioAssay (NCI)
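Results reflect a 48-hour exposure of cells in 96-well plates to compound at five concentrations. At the TGI there is no net growth.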

What was measured:
Experiment in all cases: NCI tumour cell line growth inhibition, 48 h
MOLT-4 leukemia = test system: MOLT-4 leukemia
OVCAR-3 ovarian = test system: OVCAR-3 ovarian
SF-295 CNS = test system: SF-295 CNS
RXF 393 renal = test system: RXF 393 renal
LXFL 529 NSCLC = test system: LXFL 529 NSCLC
SR leukemia = test system: SR leukemia
NCI-H23 lung = test system: NCI-H23 lung
UACC-257 melanoma = test system: UACC-257 melanoma
HCT-15 colon = test system: HCT-15 colon
NCI-H226 lung = test system: NCI-H226 lung
CAKI-1 renal = test system: CAKI-1 renal
HCT-116 colon = test system: HCT-116 colon
RPMI-8226 leukemia = test system: RPMI-8226 leukemia
SK-MEL-2 melanoma = test system: SK-MEL-2 melanoma
HOP-92 NSCLC = test system: HOP-92 NSCLC
ACHN renal = test system: ACHN renal
U251 CNS = test system: U251 CNS
EKVX NSCLC = test system: EKVX NSCLC
OVCAR-5 ovarian = test system: OVCAR-5 ovarian
SK-OV-3 ovarian = test system: SK-OV-3 ovarian
HCC-2998 colon = test system: HCC-2998 colon
OVCAR-4 ovarian = test system: OVCAR-4 ovarian
SW-620 colon = test system: SW-620 colon
HOP-62 NSCLC = test system: HOP-62 NSCLC
K-562 leukemia = test system: K-562 leukemia
CCRF-CEM leukemia = test system: CCRF-CEM leukemia
NCI-H460 lung = test system: NCI-H460 lung
KM20L2 colon = test system: KM20L2 colon
TK-10 renal = test system: TK-10 renal
M19-MEL melanoma = test system: M19-MEL melanoma
DMS 273 small cell lung = test system: DMS 273 small cell lung
UACC-62 melanoma = test system: UACC-62 melanoma
M14 melanoma = test system: M14 melanoma
UO-31 renal = test system: UO-31 renal
SK-MEL-28 melanoma = test system: SK-MEL-28 melanoma
SF-268 CNS = test system: SF-268 CNS
SN12C renal = test system: SN12C renal
HT29 colon = test system: HT29 colon
OVCAR-8 ovarian = test system: OVCAR-8 ovarian
MALME-3M melanoma = test system: MALME-3M melanoma
XF 498 CNS = test system: XF 498 CNS
DMS 114 small cell lung = test system: DMS 114 small cell lung
KM12 colon = test system: KM12 colon
LOX IMVI melanoma = test system: LOX IMVI melanoma
NCI-H522 lung = test system: NCI-H522 lung
IGROV1 ovarian = test system: IGROV1 ovarian
COLO 205 colon = test system: COLO 205 colon
T-47D breast = test system: T-47D breast
A498 renal = test system: A498 renal
MDA-MB-435 = test system: MDA-MB-435
SF-539 CNS = test system: SF-539 CNS
SK-MEL-5 melanoma = test system: SK-MEL-5 melanoma
SNB-19 CNS = test system: SNB-19 CNS
A549 NSCLC = test system: A549 NSCLC
MCF7 breast = test system: MCF7 breast
786-0 renal = test system: 786-0 renal
SNB-75 CNS = test system: SNB-75 CNS
HS 578T breast = test system: HS 578T breast
MDA-N = test system: MDA-N
MDA-MB-231 breast = test system: MDA-MB-231 breast
NCI/ADR-RES ovarian = test system: NCI/ADR-RES ovarian
HL-60(TB) leukemia = test system: HL-60(TB) leukemia
PC-3 prostate = test system: PC-3 prostate
BT-549 breast = test system: BT-549 breast
DU-145 prostate = test system: DU-145 prostate

SMILES: CN(C(=O)c1ccccc1)c1ccc2c(c1)C(=O)c1ccccc1C2=O
- TGI (MOLT-4 leukemia): > 100 µM
- TGI (OVCAR-3 ovarian): > 100 µM
- TGI (SF-295 CNS): > 100 µM
- TGI (RXF 393 renal): > 100 µM
- TGI (LXFL 529 NSCLC): > 100 µM
- TGI (SR leukemia): > 100 µM
- TGI (NCI-H23 lung): > 100 µM
- TGI (UACC-257 melanoma): > 100 µM
- TGI (HCT-15 colon): > 100 µM
- TGI (NCI-H226 lung): > 100 µM
- TGI (CAKI-1 renal): > 100 µM
- TGI (HCT-116 colon): > 100 µM
- TGI (RPMI-8226 leukemia): > 100 µM
- TGI (SK-MEL-2 melanoma): > 100 µM
- TGI (HOP-92 NSCLC): > 100 µM
- TGI (ACHN renal): > 100 µM
- TGI (U251 CNS): > 100 µM
- TGI (EKVX NSCLC): > 100 µM
- TGI (OVCAR-5 ovarian): > 100 µM
- TGI (SK-OV-3 ovarian): > 100 µM
- TGI (HCC-2998 colon): > 100 µM
- TGI (OVCAR-4 ovarian): > 100 µM
- TGI (SW-620 colon): > 100 µM
- TGI (HOP-62 NSCLC): > 100 µM
- TGI (K-562 leukemia): > 100 µM
- TGI (CCRF-CEM leukemia): > 100 µM
- TGI (NCI-H460 lung): > 100 µM
- TGI (KM20L2 colon): > 100 µM
- TGI (TK-10 renal): > 100 µM
- TGI (M19-MEL melanoma): > 100 µM
- TGI (DMS 273 small cell lung): > 100 µM
- TGI (UACC-62 melanoma): > 100 µM
- TGI (M14 melanoma): > 100 µM
- TGI (UO-31 renal): > 100 µM
- TGI (SK-MEL-28 melanoma): > 100 µM
- TGI (SF-268 CNS): > 100 µM
- TGI (SN12C renal): > 100 µM
- TGI (HT29 colon): > 100 µM
- TGI (OVCAR-8 ovarian): > 100 µM
- TGI (MALME-3M melanoma): > 100 µM
- TGI (XF 498 CNS): > 100 µM
- TGI (DMS 114 small cell lung): > 100 µM
- TGI (KM12 colon): > 100 µM
- TGI (LOX IMVI melanoma): > 100 µM
- TGI (NCI-H522 lung): > 100 µM
- TGI (IGROV1 ovarian): > 100 µM
- TGI (COLO 205 colon): > 100 µM

SMILES: COC(=O)c1cc2c(cc1C(=O)OC)[C@@]1(C)CCCC(C)(C)C1CC2 (stereo partly drawn)
- TGI (MOLT-4 leukemia): > 100 µM
- TGI (T-47D breast): 9.58 µM
- TGI (A498 renal): 32.4 µM
- TGI (OVCAR-3 ovarian): 25 µM
- TGI (SF-295 CNS): 37 µM
- TGI (RXF 393 renal): 23.2 µM
- TGI (MDA-MB-435): > 100 µM
- TGI (SR leukemia): 57.7 µM
- TGI (NCI-H23 lung): > 100 µM
- TGI (UACC-257 melanoma): 62.8 µM
- TGI (HCT-15 colon): 35.3 µM
- TGI (SF-539 CNS): 95.7 µM
- TGI (SK-MEL-5 melanoma): 35.4 µM
- TGI (NCI-H226 lung): 33.8 µM
- TGI (SNB-19 CNS): 53.7 µM
- TGI (A549 NSCLC): 55.9 µM
- TGI (HCT-116 colon): 45.8 µM
- TGI (RPMI-8226 leukemia): 34.3 µM
- TGI (SK-MEL-2 melanoma): 46.7 µM
- TGI (MCF7 breast): 32.7 µM
- TGI (786-0 renal): 36.7 µM
- TGI (SNB-75 CNS): 82.1 µM
- TGI (HOP-92 NSCLC): 26.2 µM
- TGI (ACHN renal): 36.4 µM
- TGI (U251 CNS): 40.4 µM
- TGI (HS 578T breast): 44.9 µM
- TGI (MDA-N): 78.8 µM
- TGI (EKVX NSCLC): 30.1 µM
- TGI (OVCAR-5 ovarian): 38.1 µM
- TGI (HCC-2998 colon): 34.4 µM
- TGI (OVCAR-4 ovarian): > 100 µM
- TGI (SW-620 colon): 42.2 µM
- TGI (HOP-62 NSCLC): 61.6 µM
- TGI (K-562 leukemia): 76.1 µM
- TGI (CCRF-CEM leukemia): 42.1 µM
- TGI (NCI-H460 lung): 43.8 µM
- TGI (TK-10 renal): 39 µM
- TGI (UACC-62 melanoma): 32.5 µM
- TGI (M14 melanoma): 70.8 µM
- TGI (UO-31 renal): 35 µM
- TGI (SK-MEL-28 melanoma): > 100 µM
- TGI (MDA-MB-231 breast): 41.8 µM
- TGI (SF-268 CNS): 31.2 µM
- TGI (SN12C renal): 35.2 µM
- TGI (HT29 colon): 58.2 µM
- TGI (OVCAR-8 ovarian): 74 µM
- TGI (MALME-3M melanoma): 15.3 µM
- TGI (NCI/ADR-RES ovarian): 40.8 µM
- TGI (KM12 colon): 30.6 µM
- TGI (LOX IMVI melanoma): 36 µM
- TGI (HL-60(TB) leukemia): 31.9 µM
- TGI (NCI-H522 lung): 41.5 µM
- TGI (PC-3 prostate): 51.1 µM
- TGI (BT-549 breast): 85.9 µM
- TGI (IGROV1 ovarian): 31.5 µM
- TGI (DU-145 prostate): 33.7 µM
